For series [1], the target named is Muscarinic acetylcholine receptor M5 (Homo sapiens, UniProt P08912). Put plainly: Displacement of [3H]4-DAMP from human recombinant M5 receptor expressed in CHO cells. The format is cell-based. (In a radioligand displacement assay an active substance lowers the binding of a labelled ligand.)
Series [2] concerns the target 5-hydroxytryptamine receptor 2C (Homo sapiens, UniProt P28335). Put plainly: biochemical.
Series [3] has as its target T1, 5-hydroxytryptamine receptor 2A (Homo sapiens, UniProt P28223). Put plainly: Antagonist activity at human recombinant 5-HT2A receptor expressed in CHO-K1 cells assessed as inhibition of alpha-methyl serotonin-induced response treated 15 to 30 mins before agonist challenge by luminescence analysis. The format is cell-based.
Series [4] has as its target T2, 5-hydroxytryptamine receptor 7 (Homo sapiens, UniProt P34969). Put plainly: Agonist activity at human 5-HT7 receptor expressed in CHO-K1 cells assessed as cAMP accumulation after 60 mins by TR-FRET immunoassay. Format: functional, cell-based. On the technique in general: Cyclic AMP is a second messenger, typically raised through Gs and lowered through Gi signalling.

In series [5] the target is T2, 5-hydroxytryptamine receptor 7. Put plainly: Antagonist activity at human 5-HT7 receptor expressed in CHO-K1 cells assessed as inhibition of serotonin-induced cAMP accumulation after 60 mins by TR-FRET immunoassay. The format is functional, cell-based.
Series [6] has the same target. In words: biochemical. The format is cell-based, CHO-K1.
For series [7], the target named is hERG (KCNH2) potassium channel (Homo sapiens, UniProt Q12809). In words: in vitro. The conditions noted are these: CHO cells expressing human cloned ERG.
hERG (KCNH2) potassium channel, sequence (Q12809 whole entry): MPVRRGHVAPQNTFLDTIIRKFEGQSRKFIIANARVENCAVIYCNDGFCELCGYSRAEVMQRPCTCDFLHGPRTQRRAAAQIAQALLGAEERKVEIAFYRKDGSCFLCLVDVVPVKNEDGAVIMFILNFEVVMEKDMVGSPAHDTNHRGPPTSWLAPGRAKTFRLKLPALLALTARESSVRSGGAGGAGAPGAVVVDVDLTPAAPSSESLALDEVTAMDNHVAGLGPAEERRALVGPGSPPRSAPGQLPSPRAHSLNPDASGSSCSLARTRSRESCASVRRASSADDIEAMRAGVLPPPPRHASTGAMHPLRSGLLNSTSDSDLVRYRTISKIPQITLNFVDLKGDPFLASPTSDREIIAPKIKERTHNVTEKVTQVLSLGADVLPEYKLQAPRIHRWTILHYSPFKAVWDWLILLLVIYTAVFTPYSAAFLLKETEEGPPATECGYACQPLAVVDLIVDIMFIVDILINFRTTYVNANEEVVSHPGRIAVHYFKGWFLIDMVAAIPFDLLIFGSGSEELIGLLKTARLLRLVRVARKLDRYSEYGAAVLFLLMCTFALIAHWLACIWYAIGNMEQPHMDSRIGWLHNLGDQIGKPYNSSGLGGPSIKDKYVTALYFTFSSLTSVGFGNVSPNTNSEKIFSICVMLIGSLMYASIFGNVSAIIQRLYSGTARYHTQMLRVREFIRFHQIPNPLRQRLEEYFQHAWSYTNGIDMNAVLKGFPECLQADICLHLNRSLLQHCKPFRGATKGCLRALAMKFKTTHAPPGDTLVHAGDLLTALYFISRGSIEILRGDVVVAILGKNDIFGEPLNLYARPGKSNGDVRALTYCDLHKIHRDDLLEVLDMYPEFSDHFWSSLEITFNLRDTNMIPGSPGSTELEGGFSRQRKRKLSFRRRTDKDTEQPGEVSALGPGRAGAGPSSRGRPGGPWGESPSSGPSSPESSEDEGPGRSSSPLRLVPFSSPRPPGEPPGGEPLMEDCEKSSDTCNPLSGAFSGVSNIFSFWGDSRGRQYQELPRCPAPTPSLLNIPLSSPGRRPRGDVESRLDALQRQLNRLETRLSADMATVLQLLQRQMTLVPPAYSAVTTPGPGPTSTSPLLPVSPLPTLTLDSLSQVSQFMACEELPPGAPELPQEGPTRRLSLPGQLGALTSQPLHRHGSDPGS
Series [8] addresses T3, Muscarinic acetylcholine receptor M1 (Homo sapiens) (UniProt P11229).
T3 sequence (whole entry): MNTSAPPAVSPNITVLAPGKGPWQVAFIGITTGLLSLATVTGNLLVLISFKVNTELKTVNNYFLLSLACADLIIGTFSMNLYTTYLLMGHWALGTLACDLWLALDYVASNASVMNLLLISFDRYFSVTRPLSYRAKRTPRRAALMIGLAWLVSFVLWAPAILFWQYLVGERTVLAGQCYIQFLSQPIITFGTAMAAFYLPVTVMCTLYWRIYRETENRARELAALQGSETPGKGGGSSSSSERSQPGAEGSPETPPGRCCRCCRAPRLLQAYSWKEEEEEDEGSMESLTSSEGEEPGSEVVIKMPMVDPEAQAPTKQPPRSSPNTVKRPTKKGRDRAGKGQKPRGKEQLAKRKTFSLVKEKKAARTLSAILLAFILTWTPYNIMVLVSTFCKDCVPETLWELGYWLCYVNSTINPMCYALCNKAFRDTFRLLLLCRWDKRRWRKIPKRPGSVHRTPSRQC
Put plainly: Displacement of [3H]pirenzepine from human recombinant M1 receptor expressed in CHO cells at 1 uM. The format is cell-based.

The target in series [9] is T1, 5-hydroxytryptamine receptor 2A. Put plainly: Agonist activity at human recombinant 5-HT2A receptor expressed in CHO-K1 cells by luminescence analysis. The format is cell-based.
The target is the same in series [10]. Put plainly: biochemical. Format: cell-based, CHO-K1.
Series [11] addresses T4, 5-hydroxytryptamine receptor 6 (Homo sapiens, UniProt P50406). Put plainly: biochemical.
Series [12] has as its target T5, D(2) dopamine receptor (Homo sapiens, UniProt P14416). Put plainly: biochemical.
The target in series [13] is T4, 5-hydroxytryptamine receptor 6. Put plainly: Agonist activity at human recombinant 5-HT6 receptor expressed in CHO-K1 cells by luminescence analysis. Format: cell-based.
Series [14] deals with T5, D(2) dopamine receptor. Put plainly: Agonist activity at human recombinant D2 receptor expressed in CHO-K1 cells by luminescence analysis. The format is cell-based.
The target in series [15] is T4, 5-hydroxytryptamine receptor 6. In words: Antagonist activity at human recombinant 5-HT6 receptor expressed in CHO-K1 cells assessed as inhibition of serotonin-induced response treated 15 to 30 mins before agonist challenge by luminescence analysis. Format: cell-based.

Calls of active or inactive are those of the source. The rule behind the calls is not given here.

T2 sequence (P34969 whole entry): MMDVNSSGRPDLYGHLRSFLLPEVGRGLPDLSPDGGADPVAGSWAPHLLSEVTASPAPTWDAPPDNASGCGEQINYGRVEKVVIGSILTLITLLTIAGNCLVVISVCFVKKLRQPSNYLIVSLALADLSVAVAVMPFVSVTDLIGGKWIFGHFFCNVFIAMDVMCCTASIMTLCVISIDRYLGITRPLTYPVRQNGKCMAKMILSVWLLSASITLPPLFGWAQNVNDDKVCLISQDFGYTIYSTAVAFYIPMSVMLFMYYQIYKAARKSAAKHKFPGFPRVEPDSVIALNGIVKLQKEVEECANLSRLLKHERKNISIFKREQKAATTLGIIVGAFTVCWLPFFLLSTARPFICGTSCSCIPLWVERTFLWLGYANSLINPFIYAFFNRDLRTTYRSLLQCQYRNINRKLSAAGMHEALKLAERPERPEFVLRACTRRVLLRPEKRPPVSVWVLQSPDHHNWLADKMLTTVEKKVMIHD
T4 sequence (P50406 whole entry): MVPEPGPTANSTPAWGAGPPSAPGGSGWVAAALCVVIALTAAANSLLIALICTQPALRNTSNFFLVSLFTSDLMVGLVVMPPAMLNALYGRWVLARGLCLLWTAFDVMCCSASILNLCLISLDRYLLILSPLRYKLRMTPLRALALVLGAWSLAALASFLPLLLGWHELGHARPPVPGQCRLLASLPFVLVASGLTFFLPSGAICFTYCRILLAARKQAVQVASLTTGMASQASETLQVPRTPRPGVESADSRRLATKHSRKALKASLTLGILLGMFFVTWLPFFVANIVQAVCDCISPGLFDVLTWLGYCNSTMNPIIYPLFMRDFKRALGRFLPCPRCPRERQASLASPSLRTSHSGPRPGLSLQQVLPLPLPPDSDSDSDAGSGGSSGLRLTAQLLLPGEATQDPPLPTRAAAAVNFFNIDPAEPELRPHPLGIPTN
T5 sequence (P14416 whole entry): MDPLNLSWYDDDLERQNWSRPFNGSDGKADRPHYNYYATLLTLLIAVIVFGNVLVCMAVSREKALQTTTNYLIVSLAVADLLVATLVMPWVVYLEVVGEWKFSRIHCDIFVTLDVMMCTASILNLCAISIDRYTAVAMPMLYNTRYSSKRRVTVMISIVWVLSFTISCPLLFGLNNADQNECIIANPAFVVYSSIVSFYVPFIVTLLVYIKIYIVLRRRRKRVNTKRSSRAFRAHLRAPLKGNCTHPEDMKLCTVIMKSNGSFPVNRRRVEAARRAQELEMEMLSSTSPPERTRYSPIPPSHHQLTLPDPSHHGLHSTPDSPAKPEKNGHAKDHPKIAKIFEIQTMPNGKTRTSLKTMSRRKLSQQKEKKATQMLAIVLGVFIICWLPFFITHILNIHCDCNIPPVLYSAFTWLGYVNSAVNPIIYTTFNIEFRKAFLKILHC
T1 sequence (P28223 whole entry): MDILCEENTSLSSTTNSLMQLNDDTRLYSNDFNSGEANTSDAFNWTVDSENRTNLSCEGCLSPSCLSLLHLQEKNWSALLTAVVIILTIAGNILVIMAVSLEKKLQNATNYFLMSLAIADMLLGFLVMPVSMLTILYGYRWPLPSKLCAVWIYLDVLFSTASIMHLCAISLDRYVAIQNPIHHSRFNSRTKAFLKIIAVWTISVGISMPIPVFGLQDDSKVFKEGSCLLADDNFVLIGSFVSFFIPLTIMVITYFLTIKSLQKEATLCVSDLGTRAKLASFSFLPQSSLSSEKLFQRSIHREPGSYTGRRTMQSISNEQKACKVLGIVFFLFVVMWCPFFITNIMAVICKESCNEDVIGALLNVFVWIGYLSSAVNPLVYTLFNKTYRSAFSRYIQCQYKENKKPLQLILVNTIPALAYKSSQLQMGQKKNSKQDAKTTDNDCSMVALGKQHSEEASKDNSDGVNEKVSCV
Muscarinic acetylcholine receptor M5, sequence (P08912 whole entry): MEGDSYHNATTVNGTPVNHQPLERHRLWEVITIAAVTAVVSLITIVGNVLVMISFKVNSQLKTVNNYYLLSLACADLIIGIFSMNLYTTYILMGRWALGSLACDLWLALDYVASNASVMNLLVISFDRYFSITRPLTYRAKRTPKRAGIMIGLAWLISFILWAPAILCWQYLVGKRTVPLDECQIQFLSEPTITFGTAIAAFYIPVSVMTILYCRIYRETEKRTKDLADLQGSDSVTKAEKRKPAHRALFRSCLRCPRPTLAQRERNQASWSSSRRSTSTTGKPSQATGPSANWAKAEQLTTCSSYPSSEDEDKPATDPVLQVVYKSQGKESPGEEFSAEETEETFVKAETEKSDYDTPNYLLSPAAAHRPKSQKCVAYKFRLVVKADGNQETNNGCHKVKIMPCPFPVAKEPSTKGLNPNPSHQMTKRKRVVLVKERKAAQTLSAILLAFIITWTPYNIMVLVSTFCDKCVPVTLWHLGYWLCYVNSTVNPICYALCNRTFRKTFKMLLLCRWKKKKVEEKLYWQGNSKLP
5-hydroxytryptamine receptor 2C, sequence (P28335 whole entry): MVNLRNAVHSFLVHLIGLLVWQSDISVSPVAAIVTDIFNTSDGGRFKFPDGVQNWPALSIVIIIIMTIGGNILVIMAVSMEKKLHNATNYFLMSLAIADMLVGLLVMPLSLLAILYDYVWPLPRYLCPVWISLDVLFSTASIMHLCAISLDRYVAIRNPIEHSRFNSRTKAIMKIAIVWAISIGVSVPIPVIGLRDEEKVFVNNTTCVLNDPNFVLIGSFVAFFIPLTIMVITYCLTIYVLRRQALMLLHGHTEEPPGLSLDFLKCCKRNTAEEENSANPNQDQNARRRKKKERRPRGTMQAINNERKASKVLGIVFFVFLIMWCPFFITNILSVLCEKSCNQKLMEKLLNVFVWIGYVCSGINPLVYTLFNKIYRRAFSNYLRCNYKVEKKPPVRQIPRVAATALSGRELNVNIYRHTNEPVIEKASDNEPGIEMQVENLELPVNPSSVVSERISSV

For the compound `C[N+]1(C)CCC(OC(=O)C(c2ccccc2)c2ccccc2)CC1` [4-DAMP], the Ki in series [1] worked out at 0.48 nM.

Turning to `COc1cc(OC)c(C(=O)CCCCN2CCC3(CC2)NC(=O)NC3=O)cc1NS(=O)(=O)c1ccc(C(F)(F)F)cc1` [RS-102,221], the Ki in series [2] was 0.6 nM.

As for `Cc1c(S(=O)(=O)NCCCCN2CCC(c3noc4cc(F)ccc34)CC2)sc2ccc(F)cc12`, the values for the Kb in series [3], in [5] and in series [15] were 5 nM, 2.2 nM and 14 nM, respectively. Also, the outcome (in series [4]; in series [9]; in [13]; at D(2) dopamine receptor [14]) was inactive. Moreover, the inhibition constant (Ki) in series [6] turned out to be 0.2 nM; in series [10], 0.7 nM; in [11] it was 3.4 nM; at D(2) dopamine receptor [12] it was 1.9 nM. In [7], the inhibition at 1 µM worked out at 14%. Also, the inhibition in [8] was 22%.

As to `O=S(=O)(NCCCN1CCC(c2noc3cc(F)ccc23)CC1)c1ccc(Cl)c(Cl)c1`, the Kb in [3] is 23 nM; in series [5], 2.1 nM; in series [15] it was 12 nM. Besides, the outcome (in series [4]; in [9]; in [13]; at D(2) dopamine receptor [14]) was inactive. Further, the Ki in series [6] amounted to 1.2 nM; in [10] it was 2.2 nM; in [11] it was 7.1 nM; at D(2) dopamine receptor [12], 14 nM. The inhibition at 1 µM in [7] turned out to be 69%. In addition, the inhibition in [8] was -3%.

The Ki is a dissociation constant, usually derived from enzyme kinetics or from competition with a known ligand. In general, Kb refers to the equilibrium dissociation constant of an antagonist, usually derived from a functional assay. The term inhibition denotes the drop in the measured response relative to a control, in per cent.

These data come from ChEMBL document CHEMBL3286108, “Novel arylsulfonamide derivatives with 5-HT₆/5-HT₇ receptor antagonism targeting behavioral and psychological symptoms of dementia” (J Med Chem, 2014).
